Measurements: patent US7741520B2, “Sulfonanilide analogs as selective aromatase modulators (SAMs)” (The Ohio State University Research Foundation, priority 2006, dated 2010)

Assays:
[1] = tested on: CYP19 mRNA expression in SK-BR-3 cells; assay: CYP19 mRNA expression by real-time RT-PCR in SK-BR-3 cells; assay type: cell-based, human; settings: 5 μM, 24 h (FIG. 14)
Description: (§1) RNA Extraction. Total RNA was isolated using the TRIzol reagent according to the manufacturer's protocol. Total RNA pellets were dissolved in DNase- and RNase-free water and quantitated using a spectrophotometer. The quality of RNA samples was determined by electrophoresis through agarose gels and staining with ethidium bromide; the 18S and 28S rRNA bands were visualized under ultraviolet light.
(§2) cDNA Synthesis. Isolated total RNA (2 μg) was treated with DNase I Amplification grade, according to the recommended protocol to eliminate any DNA before reverse transcription. Treated total RNA was denatured at 65° C. for 5 min in the presence of 2.5 ng/μL random hexamers and 0.5 mM dNTP mix. The samples were snap-cooled on ice and centrifuged briefly. Complementary DNA (cDNA) was synthesized using Superscript II reverse transcriptase according to the recommended protocol. Briefly, the reactions were conducted in the presence of 1× First-Strand Buffer and 20 mM DTT at 42° C. for 50 min and consequently inactivated at 70° C. for 15 min. The cDNA generated was used as a template in realtime PCR reactions.
Real-Time PCR. Real-time PCR was performed using the Opticon 2 system from MJ Research (Waltham, Mass.). For the CYP19 total gene the PCR reaction mixture consisted of Taqman Universal PCR Master Mix (Applied Biosystems), 600 nM of CYP19 primer (sense: 5′-TGTCTCTTTGTTCTTCATGCTATTTCTC-3′ (SEQ ID NO: 1); antisense: 5′-TCACCAATAACAGTCTGGATTTCC-3′) (SEQ ID NO: 2); 250 nM Taqman probe (6FAM 5′-TGCAAAGCACCCTAATGTTGAAGAGGCAAT-3′TAMRA) (SEQ ID NO: 3) (Invitrogen), 18S rRNA (Applied Biosystems, Foster City, Calif.), and 2.0 μL of each RT sample in a final volume of 20 μL. The Taqman probe was designed to anneal to a specific sequence of the aromatase gene between the forward and the reverse primers. Cycling conditions were 50° C. for 2 mm and 95° C. for 10 mm, followed by 50 cycles at 95° C. for 15 s and 60° C. for 1 mm.
as §1, with “extraction.” for “Extraction.”, “DNase,” for “DNase- and”
as §2, with “synthesis.” for “Synthesis.”, “real-time” for “realtime”
Real-time PCR. Real-time PCR was performed using the Opticon™ 2 system from MJ Research (Waltham, Mass.). For the CYP19 total gene the PCR reaction mixture consisted of Taqman® Universal PCR Master Mix (Applied Biosystems), 600 nM of CYP19 primer (sense: 5′-TGTCTCTTTGTTCTTCATGCTATTTCTC-3′ (SEQ ID NO: 1); antisense: 5′-TCACCAATAACAGTCTGGATTTCC-3′) (SEQ ID NO: 2); 250 nM Taqman probe (6FAM 5′-TGCAAAGCACCCTAATGTTGAAGAGGCAAT-3′TAMRA) (SEQ ID NO: 3) (Invitrogen), and 2.0 μL of each cDNA sample in a final volume of 20 μL. […]

| SMILES | melting point [°C] | CYP19 gene expression [1] |
| --- | --- | --- |
| CN(c1ccc([N+](=O)[O-])cc1OCc1ccc2ccccc2c1)S(C)(=O)=O [Compound 28c, N-methyl-N-[2-(β-naphthylmethoxy) 4-nitrophenyl]methanesulfonamide] | 119 to 121 | significantly decreased CYP19 gene expression |
| CN(c1ccc([N+](=O)[O-])cc1OCc1ccc(F)cc1)S(C)(=O)=O [Compound 33c, N-methyl-N-[2-(4′-fluorobenzyloxy)-4-nitrophenyl]methanesulfonamide] | 168 to 169 | significantly decreased CYP19 gene expression |
| CN(c1ccc([N+](=O)[O-])cc1OCc1ccccc1-c1ccccc1)S(C)(=O)=O [Compound 29c, N-methyl-N-[2-(2′-phenylbenzyloxy)-4-nitrophenyl]methanesulfonamide] | 128 to 129 | significantly decreased CYP19 gene expression |
| CN(c1ccc([N+](=O)[O-])cc1OCc1ccccc1)S(C)(=O)=O [Compound 26f, N-methyl-N-(2-benzyloxy-4-nitrophenyl) methanesulfonamide] |  | significantly decreased CYP19 gene expression |
| CN(c1ccc([N+](=O)[O-])cc1OCc1ccc([N+](=O)[O-])cc1)S(C)(=O)=O [Compound 27c, N-methyl-N-[2-(4′-nitrobenzyloxy)-4-nitrophenyl]methanesulfonamide] |  | significantly decreased CYP19 gene expression |
| Cc1ccc(COc2cc([N+](=O)[O-])ccc2N(C)S(C)(=O)=O)cc1 [Compound 30c, N-methyl-N-[2-(4′-methylbenzyloxy)-4-nitrophenyl]methanesulfonamide] | 96 to 98 |  |
